Our source for the inhibition values is patent publication US10745397B2, “1-Substituted 1,2,3,4-tetrahydro-1,7-naphthyridin-8-amine derivatives and their use as EP4 receptor antagonists” (TAKEDA PHARMACEUTICAL COMPANY LIMITED, priority 2015, dated 2020).

Structures are written as SMILES.

One test concerns the target T1, human EP4 receptor (Homo sapiens, UniProt P35408).
T1 construct: expressed in transfected cells; host or cells: FreeStyle293 (HEK293F) cells, transient transfection with pcDNA3.1(+), total membrane fraction
As to the kind of experiment: hEP4 radioligand binding assay ([3H] PGE2 competitive binding, membrane fractions). Conditions: 300 nM compound; 1 nM [3H] PGE2. The source says:
The full-length coding sequences for human EP1 (NM_000955), human EP2 (NM_000956), human EP3 (NM_198717) and human EP4 (NM_000958) were cloned into pcDNA3.1(+) vector (Life Technologies, CA, USA). In order to prepare overexpressed EP 1-4 membrane in Freestyle293 cells (Life Technologies, CA, USA), the pcDNA3.1(+) vector encoding a cDNA of the relevant gene was transiently transfected into FreeStyle293 cells using 293Fectin (Life Technologies, CA, USA) according to the manufacturer instruction manual. After 2 days, cultured cells were centrifuged (1,000×g, 10 min, 4° C.) and pellets homogenized by a probe sonicator (Sonics vibracell, Sonics and Materials Inc., USA; 31% Amp, 5 sec pulse, Imin interval, 4 cycles) in ice-cold 50 mM Tris-HCl buffer (pH 7.5 at 25° C.) containing 0.5 mM EDTA, 250 mM Sucrose and 10 mM MgCl2. Cell homogenates were centrifuged (890×g, 10 min, 4° C.), and the supernatant was recovered. Total membrane fractions were isolated by ultracentrifugation (140,000×g, 60 min, 4° C.). Pellets were re-suspended in the same buffer, and stored at −80° C. until use. The protein concentration in homogenate was determined with the BCA Protein Assay Kit (Pierce Biotechnology, Inc., IL, USA) according to the manufacturer protocol.
The binding affinity of the compounds was evaluated using a competitive radioligand binding assay which measured the specific binding of [3H] PGE2 to the human EP4 receptor. Briefly, varying concentrations of NCEs were incubated with cell membrane fractions generated HEK293F cells transiently transfected with human EP4 receptor as described above. Each reaction consisted of 10 μg membrane protein and NCE in 50 mM Tris-HCl, pH-6.0 by NaOH, 10 mM MgCl2 and 0.5 mM EDTA assay buffer. Radioligand, [3H] PGE2 (American Radiochemicals Inc. Specific Activity 180 Ci/mmol), at a final of 1 nM was added to each reaction where the final assay volume was 200 μL and concentration of DMSO was adjusted to 1%. Appropriate controls included total binding in the assay (vehicle control) and control for non-specific binding. Non-specific binding was evaluated by incubating the hEP4 protein with 10 μM unlabeled PGE2 under the same assay conditions as NCEs. The reaction was incubated at room temperature for 2 hours and terminated by harvesting the reaction contents to a PEI coated GF/C filter plate (PerkinElmer). The plate was washed four times with cold 50 mM Tris-HCl, pH-7.5 wash buffer and dried at 50° C. for 2 hours or at 37° C. overnight. [3H] PGE2 bound to the protein was quantified by the addition of 25 μL of Microscint PS (PerkinElmer) and plate was read on MicroBeta2 liquid Scintillation and luminescence counter (PerkinElmer). Data was analyzed using GraphPad Prism 5 (GraphPad Software Inc., San Diego, Calif.) where non-specific binding was normalized to 0% specific binding of [3]PGE2 and vehicle control (DMSO) was normalized to 100% specific binding of [3]PGE2. Binding affinity of NCEs, Ki, was generated using One site—Fit Ki equation in GraphPad Prism 5.

Test [1] concerns the target T2, hEP4 (C6 glioma cells overexpressing hEP4) (Homo sapiens, UniProt P35408).
T2 construct: host or cells: C6 glioma cells overexpressing hEP4
As to the kind of experiment: hEP4 cell based assay (cAMP), inhibition of PGE2 induced cAMP, HTRF. Conditions: 1 μM compound, PGE2 at EC80. The method, then: The functional assay for hEP4 activation and inhibition was carried out via the quantitative determination of agonist, PGE2, induced cAMP response using HTRF in a competitive immunoassay (Cisbio dynamic 2 kit). NCEs at varying concentrations were evaluated for inhibition of PGE2 induced increase in cAMP. Briefly, C6 glioma cells overexpressing hEP4 (Takeda) were cultured in DMEM (low glucose, pyruvate), 10% FBS (Gibco) and PenStep. The cells were harvested on the day of the assay, washed with HBSS+10 mM HEPES (pH 7.4)+0.1% BSA buffer and pre-incubated with varying concentrations of NCE. Each reaction contained 7000 cells and NCEs in HBSS+10 mM HEPES+0.1% BSA assay buffer along with PDE inhibitors IBMX and Ro 20-1724 (final concentration of each inhibitor […]). Following 15 min pre-incubation, the cells were treated with EC80 concentration of agonist PGE2 for 30 min to induce cAMP. Final volume of the assay was 6 μL and DMSO concentration was maintained at 1%. The reaction was terminated with the addition of cAMP labeled with the dye d2 in lysis buffer according to manufacturers' protocol. This was followed by the addition of the anti-cAMP antibody labeled with Cryptate according to the manufacturers' protocol. The reaction was incubated at room temperature in dark for 45 min and the plate was evaluated for fluorescence at 665 nm (FRET) and 620 nm (cryptate emission) on a Flexstation III microplate reader (Molecular Devices, Sunnyvale, Calif.) Ex max: 313 nm; Em1: 620 nm; Em2: 665 nm. Data was analyzed using GraphPad Prism 5 (GraphPad Software Inc., San Diego, Calif.) where cells treated with agonist (EC80) was normalized to 0% inhibition of hEP4 and cells treated with buffer (no agonist) was normalized to 100% inhibition of hEP4. IC50 of NCEs was generated using non-linear regression—Log(inhibitor) vs. response equation in GraphPad Prism 5.

T2 sequence (P35408 whole entry): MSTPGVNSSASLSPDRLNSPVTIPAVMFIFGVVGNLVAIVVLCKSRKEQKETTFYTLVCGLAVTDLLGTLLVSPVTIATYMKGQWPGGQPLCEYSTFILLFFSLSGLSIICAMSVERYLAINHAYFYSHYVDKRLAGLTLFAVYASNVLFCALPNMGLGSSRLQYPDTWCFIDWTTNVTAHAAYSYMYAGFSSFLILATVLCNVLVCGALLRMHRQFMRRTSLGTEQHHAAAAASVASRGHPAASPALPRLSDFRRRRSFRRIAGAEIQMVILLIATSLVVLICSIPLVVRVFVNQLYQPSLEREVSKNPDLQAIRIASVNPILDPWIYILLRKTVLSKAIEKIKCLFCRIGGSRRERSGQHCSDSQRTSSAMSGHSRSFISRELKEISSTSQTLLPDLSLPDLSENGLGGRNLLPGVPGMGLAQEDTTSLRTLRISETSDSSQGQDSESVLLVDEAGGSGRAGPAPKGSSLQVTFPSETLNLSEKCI
T1 sequence (P35408 whole entry): as above

For the compound `C[C@H](Nc1nccc2c1N(Cc1ccc(C(F)(F)F)cc1)CCC2)c1ccc(C(=O)O)cc1` [Example B37, 4-[(1S)-1-[[1-[[4-(trifluoromethyl)phenyl]methyl]-3,4-dihydro-2H-1,7-naphthyridin-8-yl]amino]ethyl]benzoic acid], the inhibition at 0.3 µM at human EP4 receptor amounted to 97%. Moreover, the inhibition at 1 µM in test [1] is 97%.
`CNC(=O)c1ccc([C@H](C)Nc2nccc3c2N(Cc2ccc(C(F)(F)F)cc2)CCO3)cc1` [Example D3, N-methyl-4-[(1S)-1-[[4-[[4-(trifluoromethyl)phenyl]methyl]-2,3-dihydropyrido[4,3-b][1,4]oxazin-5-yl]amino]ethyl]benzamide]: at 0.3 µM the inhibition at human EP4 receptor was 73%. Besides, the inhibition at 1 µM in test [1] was 84%.
For `C[C@H](Nc1nccc2c1N(Cc1ccc(C(F)(F)F)o1)CCO2)c1ccc(C(=O)O)cc1` [Example B31, 4-[(1S)-1-[[4-[[5-(trifluoromethyl)-2-furyl]methyl]-2,3-dihydropyrido[4,3-b][1,4]oxazin-5-yl]amino]ethyl]benzoic acid], in that order: 92% and 98%.
Turning to `C[C@@H](Nc1nccc2c1N(Cc1ccc(C(F)(F)F)cc1)CCO2)c1ccc(C(=O)O)cc1` [Example B32, 4-[(1R)-1-[[4-[[4-(trifluoromethyl)phenyl]methyl]-2,3-dihydropyrido[4,3-b][1,4]oxazin-5-yl]amino]ethyl]benzoic acid], testing at 0.3 µM on human EP4 receptor gave an inhibition of 53%. The compound further registered an inhibition at 1 µM in test [1] of 47%.
For `C[C@H](Nc1nccc2c1N(Cc1cccc(F)c1)CCO2)c1ccc(C(=O)O)cc1` [Example B8, 4-[(1S)-1-[[4-[(3-fluorophenyl)methyl]-2,3-dihydropyrido[4,3-b][1,4]oxazin-5-yl]amino]ethyl]benzoic acid] the same measures were 97% and 100%.
On human EP4 receptor, `COc1cccc(CN2CCOc3ccnc(N[C@@H](C)c4ccc(C(=O)O)cc4)c32)c1` [Example B12, 4-[(1S)-1-[[4-[(3-methoxyphenyl)methyl]-2,3-dihydropyrido[4,3-b][1,4]oxazin-5-yl]amino]ethyl]benzoic acid] came in with an inhibition at 0.3 µM of 98%. Also, the inhibition at 1 µM in test [1] is 100%.
For `C[C@H](Nc1nccc2c1N(Cc1cccc(Cl)c1)CCC2)c1ccc(C(=O)O)cc1` [Example B45, 4-[(1S)-1-[[1-[(3-chlorophenyl)methyl]-3,4-dihydro-2H-1,7-naphthyridin-8-yl]amino]ethyl]benzoic acid] the same measures were 100% and 98%.
In the case of `COc1cccc(CN2CCOc3ccnc(NC4(c5ccc(C(=O)O)cc5)CC4)c32)c1` [Example B23, 4-[1-[[4-[(3-methoxyphenyl)methyl]-2,3-dihydropyrido[4,3-b][1,4]oxazin-5-yl]amino]cyclopropyl]benzoic acid], at 0.3 µM the inhibition at human EP4 receptor was 100%. This compound also displayed an inhibition at 1 µM in test [1] of 74%.
For `C[C@H](Nc1nccc2c1N(Cc1ccc(Cl)cc1)CCO2)c1ccc(C(=O)O)cc1` [Example B7, 4-[(1S)-1-[[4-[(4-chlorophenyl)methyl]-2,3-dihydropyrido[4,3-b][1,4]oxazin-5-yl]amino]ethyl]benzoic acid], in that order: 99% and 100%.
For `Cc1ccc(CN2CCOc3ccnc(NC4(c5ccc(C(=O)O)cc5)CC4)c32)cc1` [Example B26, 4-[1-[[4-(p-tolylmethyl)-2,3-dihydropyrido[4,3-b][1,4]oxazin-5-yl]amino]cyclopropyl]benzoic acid], in that order: 93% and 87%.
Turning to `COc1ccc(CN2CCOc3ccnc(NC4(c5ccc(C(=O)O)cc5)CC4)c32)cc1` [Example B21, 4-[1-[[4-[(4-methoxyphenyl)methyl]-2,3-dihydropyrido[4,3-b][1,4]oxazin-5-yl]amino]cyclopropyl]benzoic acid], the inhibition at 0.3 µM at human EP4 receptor was found to be 87%. Also, in test [1], at 1 µM the inhibition was 87%.
As to `O=C(O)c1ccc(C2(Nc3nccc4c3N(Cc3cc(F)cc(F)c3)CCO4)CC2)cc1` [Example B17, 4-[1-[[4-[(3,5-difluorophenyl)methyl]-2,3-dihydropyrido[4,3-b][1,4]oxazin-5-yl]amino]cyclopropyl]benzoic acid], the inhibition at 0.3 µM on human EP4 receptor stood at 96%. In test [1], this compound yielded an inhibition at 1 µM of 86%.
For `Cc1cnc(N[C@@H](C)c2ccc(C(=O)O)cc2)c2c1OCCN2Cc1cccc(C(F)(F)F)c1` [Example B46, 4-[(1S)-1-[[8-Methyl-4-[[3-(trifluoromethyl)phenyl]methyl]-2,3-dihydropyrido[4,3-b][1,4]oxazin-5-yl]amino]ethyl]benzoic acid] the same measures were 87% and 95%.
For `Cc1cccc(CN2CCOc3ccnc(N[C@@H](C)c4ccc(C(=O)O)cc4)c32)c1` [Example B10, 4-[(1S)-1-[[4-(m-tolylmethyl)-2,3-dihydropyrido[4,3-b][1,4]oxazin-5-yl]amino]ethyl]benzoic acid] the same measures were 97% and 100%.
For `C[C@H](Nc1ncc(Cl)c2c1N(Cc1ccc(C(F)(F)F)cc1)CCO2)c1ccc(C(=O)O)cc1` [Example G1, 4-[(1S)-1-[[8-Chloro-4-[[4-(trifluoromethyl)phenyl]methyl]-2,3-dihydropyrido[4,3-b][1,4]oxazin-5-yl]amino]ethyl]benzoic acid], in that order: 100% and 92%.
On human EP4 receptor, `C[C@H](Nc1nccc2c1N(CC1CCCCC1)CCO2)c1ccc(C(=O)O)cc1` [Example B39, 4-[(1S)-1-[[4-(cyclohexylmethyl)-2,3-dihydropyrido[4,3-b][1,4]oxazin-5-yl]amino]ethyl]benzoic acid] showed an inhibition at 0.3 µM of 100%. This compound had an inhibition at 1 µM in test [1] of 93%.
For `C[C@H](Nc1nccc2c1N(Cc1ccc(C(F)(F)F)cc1)CCO2)c1ccc(C(=O)O)cc1` [Example B5, 4-[(1S)-1-[[4-[[4-(trifluoromethyl)phenyl]methyl]-2,3-dihydropyrido[4,3-b][1,4]oxazin-5-yl]amino]ethyl]benzoic acid], in that order: 74% and 100%.
For `Cc1ccc(CN2CCOc3ccnc(N[C@@H](C)c4ccc(C(=O)O)cc4)c32)cc1` [Example B11, 4-[(1S)-1-[[4-(p-tolylmethyl)-2,3-dihydropyrido[4,3-b][1,4]oxazin-5-yl]amino]ethyl]benzoic acid] the same measures were 95% and 100%.
